Measurements taken from article PMC10891803, “Seleno-Warfare against Cancer: Decoding Antitumor Activity of Novel Acylselenoureas and Se-Acylisoselenoureas” (Pharmaceutics, 2024).
Read-outs that look alike come from different tables or passages of the source.

Columns and labels:
[1] = system: DU-145; test: MTT cell viability assay, DU-145; assay type: cell-based, human; conditions: 48 h; for percentage of cell growth, DU-145: 10 µM, MTT screening (Figure S1); for IC50: Homo sapiens, DU-145, MTT, mean ± SD of three experiments, read-out: IC50 DU-145 (Prostate)
Description: (§1) The cell lines were purchased from the American Type Culture Collection (ATCC). The four tumor cell lines used were as follows: MDA-MB-231 (triple-negative breast cancer), HTB-54 (lung cancer), DU-145 (prostate cancer), and HCT-116 (colon cancer), and the non-tumoral cell line 185-B5 (mammary tissue) were grown in Roswell Park Memorial Institute (RPMI) 1640 medium culture (Thermo Scientific, USA), supplemented with 10% fetal bovine serum (FBS) (Thermo Scientific, USA) and 1% of antibiotics (10,000 units/mL penicillin and 10 mg/mL streptomycin (Thermo Scientific, USA)). Cells were preserved in tissue culture flasks at 37 °C and 5% CO2. The culture medium was replaced every two to three days.
(§2) Cell viability was determined using the MTT colorimetric assay. A total of 10,000 cells were seeded in each well in a 96-well plate for 24 h. Then, cells were incubated with the corresponding concentration of each tested compound and with DMSO (1%) as control for 48 h. Each compound was dissolved in DMSO at a stock concentration of 0.01 M. Firstly, each compound was tested at 2 concentrations (10 µM and 50 µM) in four human tumoral cell lines MDA-MB-231, HTB-54, DU-145, and HCT-116. Serial dilutions from stock concentration with culture medium were prepared. […] The cell viability was determined by the addition of 20 µL of MTT and its incubation for 2.5 h. Later, the culture medium was removed, and 50 µL of DMSO was added to dissolve formazan crystals. The absorbance was measured at 550 nm. Inhibitory concentration 50 (IC50) and selectivity index (SI) were calculated. Three different experiments were performed independently.
(§3) Cell viability results are expressed as the mean ± standard deviation (SD), and experiments were independently performed thrice in triplicates. IC50 values were determined using a non-linear curve regression analysis calculated by OriginPro 9.0 software.

[2] = system: HTB-54; test: MTT cell viability assay, HTB-54; assay type: cell-based, human; conditions: 48 h; for percentage of cell growth, HTB-54: 10 µM, MTT screening (Figure S1); for IC50: Homo sapiens, HTB-54, MTT, mean ± SD of three experiments, read-out: IC50 HTB-54 (Lung)
Description: as §1, §2, §3

[3] = system: MDA-MB-231; test: MTT cell viability assay, MDA-MB-231; assay type: cell-based, human; conditions: for percentage of cell growth, MDA-MB-231: 10 µM, MTT screening (Figure S1); for percentage of cell growth, MDA-MB-231 / IC50: 48 h; for IC50: Homo sapiens, MDA-MB-231, MTT, mean ± SD of three experiments, read-out: IC50 MDA-MB-231 (Breast); for Selectivity index (SI): IC50 184-B5/IC50 MDA-MB-231
Description: as §1, §2, §3

[4] = system: 184-B5; test: MTT cell viability assay, non-malignant 184-B5; assay type: cell-based; conditions: Homo sapiens, 48 h, mean ± SD of three experiments, read-out: IC50 184-B5 (Breast, non-tumoral)
Description: as §1, §2, §3

[5] = system: HCT-116; test: MTT cell viability assay, HCT-116; assay type: cell-based, human; conditions: 10 µM, 48 h, MTT screening (Figure S1)
Description: as §1, §2, §3

[6] = system: MDA-MB-231, HTB-54, DU-145, and HCT-116; test: MTT initial screening in four tumor cell lines; assay type: cell-based; conditions: Homo sapiens, in at least three cell lines, 48 h, read-out: cell growth inhibition
Description: as §2

[7] = system: panel of 60 cancer cell lines; test: NCI60 One-Dose screening; assay type: cell-based; conditions: 1·10^−5 M, 48 h, mean of 60 cancer cell lines
Description: (§4) The ten compounds with the highest cell growth inhibition activity were submitted to the Developmental Therapeutics Program (DTP) of the National Cancer Institute (NCI). The assay consists of the evaluation of the cytotoxicity by a One-Dose screening at 10^−5 M against a panel of 60 cancer cell lines of different tumors (leukemia, lung, central nervous system (CNS), melanoma, ovarian, renal, prostate, and breast cancer cell lines). […] A range of 5000–40,000 cells/well were seeded and cultured in RPMI 1640 containing 5% of FBS and 2 mM L-glutamine and were inoculated into 96-well microtiter plates in 100 µL. The microtiter plates are incubated at 37 °C and 5% humidified CO2 for 24 h prior to the addition of experimental drugs. After that, an experimental drug was added, and the microtiter was incubated for 48 h.

[8] = system: panel of 60 cancer cell lines; test: NCI60 Five-Dose assay; assay type: cell-based; conditions: Five-Dose assay 0.01–100 µM, 48 h, 60 cell line panel
Description: as §4

[9] = system: MDA-MB-231, HTB-54, and DU-145; test: MTT dose-response in the three tumoral cell lines; assay type: cell-based, human; conditions: 48 h, read-out: IC50 toward the tumoral cell lines
Description: as §2, §3

[10] = system: DU-145 cells; test: Muse Annexin V/7-AAD apoptosis assay; assay type: cell-based, human; conditions: DU-145, 2.5 μM, 48 h
Description: (§5) The apoptosis assays were conducted using the Muse Caspase-3/7 assay kit and the Annexin V/7-AAD kit (EMD Millipore, Darmstadt, Germany) following the manufacturer’s instructions. Initially, DU-145 cells were seeded in 6-well plates at a density of 1 × 10^5 cells per well. After 24 h of incubation, the cells received treatment with 2.5 µM and 5 µM of compound 4. Subsequently, the cells were incubated for 48 h. Upon completion of the treatment period, the cells were harvested using enzyme-free Cell Dissociation Buffer. The samples were then subjected to the appropriate dyes according to the manufacturer’s instructions and analyzed using the Muse Cell Analyzer (Merck Millipore, Darmstadt, Germany).
Apoptosis was assessed using the Muse Annexin V & Dead Cell assay kit following the manufacturer’s guidelines.

[11] = system: DU-145 cells; test: Muse Caspase-3/7 assay; assay type: cell-based, human; conditions: DU-145, 2.5 and 5 µM, 48 h
Description: as §5

[12] = system: apoptotic proteins in DU-145 cells; test: Western blot of apoptotic proteins; assay type: cell-based, human; conditions: DU-145, 5 µM, 24 h
Description: Western blot analysis was conducted to evaluate changes in protein expression levels before and after treatment. In brief, DU-145 cells were treated with 5 µM of compound 4, and upon completing the designated treatment duration, cell lysis was achieved using RIPA buffer (Thermo Scientific, USA), supplemented with a protease inhibitor cocktail (Thermo Scientific, USA). Subsequently, the resulting lysates were chilled on ice for 30 min and then centrifuged at 10,000 rpm for 15 min to remove cellular debris. Total protein concentration was determined using the BCA assay (Thermo Scientific, USA). Equivalent quantities of cell lysates were separated using NuPAGE 4–12% gels (Life Technologies, Carlsbad, CA, USA), followed by electro-transfer onto a PVDF membrane. Various antibodies were employed to investigate protein expression levels, with detection accomplished using the Enhanced Chemiluminescent reagent (Life Technologies, USA). All antibodies utilized in this study were procured from Cell Signaling Technologies (Danvers, MA, USA).

[13] = system: MDA-MB-231 cells; conditions: cited from earlier work
[14] = system: DU-145; parameters: method as in PMID 11306488; conditions: cited from earlier work

CC(=O)Oc1ccccc1C(=O)[Se]C(=NC1CCCCC1)NC1CCCCC1 [Compound 1]
percentage of cell growth, DU-145 [1]: -96.27% | IC50 [1]: 5.17 ± 0.32 µM | percentage of cell growth, HTB-54 [2]: -52.60% | IC50 [2]: 8.31 ± 1.01 µM | percentage of cell growth, MDA-MB-231 [3]: 39.10% | IC50 [3]: 8.56 ± 0.1 µM | Selectivity index (SI) [3]: 1.84 | IC50 [4]: 15.8 ± 1.33 µM | percentage of cell growth, HCT-116 [5]: 94.15% | inhibition at 10 µM [6]: > 50% | mean value of cell growth, One-Dose assay [7]: −68.50% | GI50 [8]: < 2 µM | melting point: 96 to 97 °C

CC(=O)Oc1ccccc1C(=O)[Se]C(=NC(C)C)NC(C)C [Compound 4]
percentage of cell growth, DU-145 [1]: -82.47% | IC50 [1]: 5.06 ± 0.02 µM | percentage of cell growth, HTB-54 [2]: -34.81% | IC50 [2]: 7.2 ± 1.81 µM | percentage of cell growth, MDA-MB-231 [3]: -41.78% | IC50 [3]: 5.48 ± 0.42 µM | Selectivity index (SI) [3]: 1.75 | IC50 [4]: 9.6 ± 0.97 µM | percentage of cell growth, HCT-116 [5]: 36.77% | IC50 [9]: < 7.5 µM | IC50 ([9]; Homo sapiens): < 10 µM | inhibition at 10 µM [6]: > 50% | mean value of cell growth, One-Dose assay [7]: −67.93% | GI50 [8]: < 2 µM | cells exhibiting signs of apoptosis [10]: over 25% | caspase 3/7 activity [11]: dose-dependent increase | Bax expression [12]: upregulation | Bcl-2 expression [12]: Downregulation | caspase-3 cleavage and activation [12]: increased the cleavage and activation | expression of pro-caspase-9 [12]: reduction

[Se] [elemental Se]
effect on cell growth ([13]; MDA-MB-231 cells incubated alone with Se): no effect on cell growth | type of cell death [14]: apoptotic cell death

CC(C)NC(=[Se])NC(=O)c1ccccc1 [Compound 15]
percentage of cell growth, DU-145 [1]: -80.57% | IC50 [1]: 5.19 ± 1.55 µM | percentage of cell growth, HTB-54 [2]: -57.90% | IC50 [2]: 26.4 ± 16.9 µM | percentage of cell growth, MDA-MB-231 [3]: -59.41% | IC50 [3]: 24.5 ± 7.55 µM | Selectivity index (SI) [3]: 0.34 | IC50 [4]: 8.51 ± 4.81 µM | percentage of cell growth, HCT-116 [5]: 123.90% | inhibition at 10 µM [6]: > 50% | mean value of cell growth, One-Dose assay [7]: −31.58% | GI50 [8]: < 2 µM | melting point: 125 to 127 °C

O=[Se]=O [SeO2]
cell viability ([13]; MDA-MB-231): at least 50%
